Data published in patent publication US9096592B2, “Bicyclic aza heterocycles, and use thereof” (BAYER INTELLECTUAL PROPERTY GMBH, priority 2010, dated 2015).
Where a name gives a salt, the structure may show the parent alone.

Test system: aorta rings
Assay: Vasorelaxant action in vitro (phenylephrine-contracted rabbit aorta rings, organ bath)
Conditions: Oryctolagus cuniculus; concentration needed to reduce the phenylephrine contraction of rabbit aorta rings by 50%
Procedure: B-1. Vasorelaxant Action In Vitro
Rabbits are stunned by a blow to the neck and exsanguinated. The aorta is removed, freed from adhering tissue and divided into rings of width 1.5 mm, which are placed individually under prestress into 5 ml organ baths with carbogen-sparged Krebs-Henseleit solution at 37° C. having the following composition (each mM): sodium chloride 119; potassium chloride: 4.8; calcium chloride dihydrate: 1; magnesium sulfate heptahydrate: 1.4; potassium dihydrogenphosphate: 1.2; sodium hydrogencarbonate: 25; glucose: 10. The contractile force is determined with Statham UC2 cells, amplified and digitalized using A/D transducers (DAS-1802 HC, Keithley Instruments Munich), and recorded in parallel on linear recorders. To obtain a contraction, phenylephrine is added to the bath cumulatively in increasing concentration. After several control cycles, the substance to be studied is added in increasing dosage each time in every further run, and the magnitude of the contraction is compared with the magnitude of the contraction attained in the last preceding run. This is used to calculate the concentration needed to reduce the magnitude of the control value by 50% (IC50 value). The standard administration volume is 5 μl; the DMSO content in the bath solution corresponds to 0.1%.

SMILES | IC50 [nM]
COC(=O)N1NC(=O)Nc2nc(-c3nn(Cc4ccccc4F)c4ncccc34)nc(N)c21 [Example 105, Methyl 8-amino-6-[1-(2-fluorobenzyl)-1H-pyrazolo[3,4-b]pyridin-3-yl]-3-oxo-3,4-dihydropyrimido[4,5-e][1,2,4]triazine-1(2H)-carboxylate] | 402
CC(C)(C)Cn1c(=O)[nH]c2nc(-c3nn(Cc4ccccc4F)c4ncccc34)ncc21 [Example 122, 7-(2,2-Dimethylpropyl)-2-[1-(2-fluorobenzyl)-1H-pyrazolo[3,4-b]pyridin-3-yl]-7,9-dihydro-8H-purin-8-one] | 42
Cn1c(=O)[nH]c2nc(-c3nn(Cc4ccccc4F)c4ncccc34)nc(C#CC(C)(C)O)c21 [Example 135, 2-[1-(2-Fluorobenzyl)-1H-pyrazolo[3,4-b]pyridin-3-yl]-6-(3-hydroxy-3-methylbut-1-yn-1-yl)-7-methyl-7,9-dihydro-8H-purin-8-one] | 264
Cn1c(=O)[nH]c2nc(-c3nn(Cc4ccccc4F)c4ncccc34)nc(C(C)(C)O)c21 [Example 136, 2-[1-(2-Fluorobenzyl)-1H-pyrazolo[3,4-b]pyridin-3-yl]-6-(2-hydroxypropan-2-yl)-7-methyl-7,9-dihydro-8H-purin-8-one] | 114
O=c1[nH]c2nc(-c3nn(Cc4ccccc4F)c4ncccc34)ncc2n1C1CCN(CC(F)F)CC1 [Example 145, 7-[1-(2,2-Difluoroethyl)piperidin-4-yl]-2-[1-(2-fluorobenzyl)-1H-pyrazolo[3,4-b]pyridin-3-yl]-7,9-dihydro-8H-purin-8-one] | 171
O=c1[nH]c2nc(-c3nn(Cc4ccccc4F)c4ncccc34)ncc2n1C1CNC1 [Example 147, 7-(Azetidin-3-yl)-2-[1-(2-fluorobenzyl)-1H-pyrazolo[3,4-b]pyridin-3-yl]-7,9-dihydro-8H-purin-8-one hydrochloride] | 580
O=c1[nH]c2nc(-c3nn(Cc4ccccc4F)c4ncccc34)ncc2c(=O)n1CC(F)(F)F [Example 149, 7-[1-(2-Fluorobenzyl)-1H-pyrazolo[3,4-b]pyridin-3-yl]-3-(2,2,2-trifluoroethyl)pyrimido[4,5-d]pyrimidine-2,4(1H,3H)-dione] | 462
O=c1[nH]c(=O)c2cnc(-c3nn(Cc4ccccc4F)c4ncccc34)nc2[nH]1 [Example 150, 7-[1-(2-Fluorobenzyl)-1H-pyrazolo[3,4-b]pyridin-3-yl]pyrimido[4,5-d]pyrimidine-2,4(1H,3H)-dione] | 479
CCc1nc(=O)c2cnc(-c3nn(Cc4ccccc4F)c4ncccc34)nc2[nH]1 [Example 153, 2-Ethyl-7-[1-(2-fluorobenzyl)-1H-pyrazolo[3,4-b]pyridin-3-yl]pyrimido[4,5-d]pyrimidin-4(1H)-one] | 1300

The remaining lines, values ahead:

IC50 [nM] | SMILES
1350 | Cn1c(=O)[nH]c2nc(-c3nn(Cc4ccccc4F)c4ncccc34)nc(N3CCC3)c21 [Example 112, 6-(Azetidin-1-yl)-2-[1-(2-fluorobenzyl)-1H-pyrazolo[3,4-b]pyridin-3-yl]-7-methyl-7,9-dihydro-8H-purin-8-one]
735 | Cc1nc(-c2nn(Cc3ccccc3F)c3ncccc23)nc2[nH]c(=O)[nH]c12 [Example 119, 2-[1-(2-Fluorobenzyl)-1H-pyrazolo[3,4-b]pyridin-3-yl]-6-methyl-7,9-dihydro-8H-purin-8-one]
87 | O=c1[nH]c2nc(-c3nn(Cc4ccccc4F)c4ncccc34)ncc2n1Cc1ccccc1F [Example 124, 7-(2-fluorobenzyl)-2-[1-(2-fluorobenzyl)-1H-pyrazolo[3,4-b]pyridin-3-yl]-7,9-dihydro-8H-purin-8-one]
98 | O=c1[nH]c2nc(-c3nn(Cc4ccccc4F)c4ncccc34)ncc2n1CCN1CCOCC1 [Example 142, 2-[1-(2-Fluorobenzyl)-1H-pyrazolo[3,4-b]pyridin-3-yl]-7-[2-(morpholin-4-yl)ethyl]-7,9-dihydro-8H-purin-8-one]
421 | CS(=O)(=O)CCn1c(=O)[nH]c2nc(-c3nn(Cc4ccccc4F)c4ncc(F)cc34)ncc21 [Example 146, 2-[5-Fluoro-1-(2-fluorobenzyl)-1H-pyrazolo[3,4-b]pyridin-3-yl]-7-[2-(methylsulfonyl)ethyl]-7,9-dihydro-8H-purin-8-one]
